# Laboratory results taken from US20040184993A1, “Pharmaceutical aerosol composition containing HFA 227 and HFA 134a” (Chiesi Farmaceutici S.p.A., priority 1998, published 2004).
# Where “and” joins values, the source holds several entries; their conditions need not be identical. Identical values can stand only once. Like-named read-outs stand apart in the source and are kept apart here.
# Tests used:
# [1] = BDP as a solution in HFA 134a (formulations of EP 0553298), reported in literature; cited from earlier work
# [2] = Aerodynamic particle size distribution of pMDI solution formulations by Andersen Cascade Impactor (MMAD, GSD, fine particle dose); format: physicochemical; conditions: for FPD3 < 4.7 μm*: ethanol 15%, normalized for 250 nominal dose
# Protocol: The aerodynamic particle size distribution of each formulation was characterized using a Multistage Cascade Impactor according to the procedure described in the European Pharmacopoeia 2nd edition, 1995, part V.5.9.1. pages 15-17. In this specific case an Andersen Cascade Impactor (ACI) was used. Results represented were obtained from ten cumulative actuations of a formulation. Deposition of the drug on each ACI plate was determined by high pressure liquid chromatography. The mass median aerodynamic diameter (MMAD) and geometric standard deviation (GSD) were calculated from plots of the cumulative percentage undersize of drug collected on each ACI plate (probit scale), against the upper cut off diameter for each respective ACI plate (log10 scale). The fine particle dose of each formulation was determined from the mass of drug collected on Stages 3 through to Filter (<4.7 μm) divided by the number of actuations per experiment.
# [3] = BDP 50 μg/shot, ethanol 13%, glycerol 1.3%, HFA 134a, chamber volume 25 μl, actuator orifice 0.25 mm
# [4] = BDP 50 μg/shot, ethanol 13%, glycerol 1.3%, HFA 134a, chamber volume 25 μl, actuator orifice 0.30 mm
# [5] = BDP 50 μg/shot, ethanol 13%, glycerol 1.3%, HFA 134a, chamber volume 50 μl, actuator orifice 0.30 mm
# [6] = BDP 50 μg/shot, ethanol 13%, glycerol 1.3%, HFA 134a, chamber volume 100 μl, actuator orifice 0.30 mm
# [7] = BDP 50 μg/shot, ethanol 13%, glycerol 1.3%, HFA 227, chamber volume 25 μl, actuator orifice 0.30 mm
# [8] = BDP 50 μg/shot, ethanol 13%, glycerol 1.3%, HFA 227, chamber volume 50 μl, actuator orifice 0.30 mm
# [9] = BDP 50 μg/shot, ethanol 13%, glycerol 1.3%, HFA 227, chamber volume 100 μl, actuator orifice 0.30 mm
# [10] = BDP 250 μg/shot, ethanol 15% (w/w), glycerol 1.3% (w/w), actuator 0.30 mm, HFA 227/HFA 134a 0:100
# [11] = BDP 250 μg/shot, ethanol 15% (w/w), glycerol 1.3% (w/w), actuator 0.30 mm, HFA 227/HFA 134a 25:75
# [12] = BDP 250 μg/shot, ethanol 15% (w/w), glycerol 1.3% (w/w), actuator 0.30 mm, HFA 227/HFA 134a 50:50
# [13] = BDP 250 μg/shot, ethanol 15% (w/w), glycerol 1.3% (w/w), actuator 0.30 mm, HFA 227/HFA 134a 75:25
# [14] = BDP 250 μg/shot, ethanol 15% (w/w), glycerol 1.3% (w/w), actuator 0.30 mm, HFA 227/HFA 134a 100:0
smiles,measurement,setting,value
"CCC(=O)OCC(=O)[C@@]1(OC(=O)CC)[C@@H](C)C[C@H]2[C@@H]3CCC4=CC(=O)C=C[C@]4(C)[C@@]3(Cl)[C@@H](O)C[C@@]21C [BDP, beclomethasone 17,21 dipropionate]",MMAD,[1],1.1 μm
same,FPD < 4.7 μm,[2]; [3],26.0 µg
same,GSD,[2]; [3],1.9
same,MMAD,[2]; [3],2.8 μm
same,Metered Dose,[2]; [3],55 µg
same,FPD < 4.7 μm,[2]; [4],19.2 µg
same,GSD,[2]; [4],2.0
same,MMAD,[2]; [4],2.6 μm
same,Metered Dose,[2]; [4],57 µg
same,FPD < 4.7 μm,[2]; [5],13.9 µg
same,GSD,[2]; [5],2.1
same,MMAD,[2]; [5],2.8 μm
same,Metered Dose,[2]; [5],49 µg
same,FPD < 4.7 μm,[2]; [6],11.7 µg
same,GSD,[2]; [6],2.2
same,MMAD,[2]; [6],2.7 μm
same,Metered Dose,[2]; [6],51 µg
same,FPD < 4.7 μm,[2]; [7],16.4 µg
same,GSD,[2]; [7],2.1
same,MMAD,[2]; [7],3.6 μm
same,Metered Dose,[2]; [7],58 µg
same,FPD < 4.7 μm,[2]; [8],13.1 µg
same,GSD,[2]; [8],2.2
same,MMAD,[2]; [8],3.5 μm
same,Metered Dose,[2]; [8],51 µg
same,FPD < 4.7 μm,[2]; [9],12.6 µg
same,GSD,[2]; [9],2.2
same,MMAD,[2]; [9],3.5 μm
same,Metered Dose,[2]; [9],49 µg
same,FPD,[2]; [10],"27, 27%"
same,MMAD,[2]; [10],"2.8, 2.8 μm"
same,FPD,[2]; [11],27% and 28%
same,MMAD,[2]; [11],3.3 μm and 3.2 μm
same,FPD,[2]; [12],"25, 25%"
same,MMAD,[2]; [12],3.4 μm and 3.7 μm
same,FPD,[2]; [13],"25, 25%"
same,MMAD,[2]; [13],"3.7, 3.7 μm"
same,FPD,[2]; [14],20% and 24%
same,MMAD,[2]; [14],4.2 μm and 3.9 μm and 3.8 μm
same,FPD3 < 4.7 μm*,"[2]; BDP 250 μg/shot, glycerol 1.3%, actuator 0.30 mm, HFA 227/HFA 134a 0:100",58 µg and 59 µg
same,FPD3 < 4.7 μm*,"[2]; BDP 250 μg/shot, glycerol 1.3%, actuator 0.30 mm, HFA 227/HFA 134a 25:75",60 µg and 62 µg
same,FPD3 < 4.7 μm*,"[2]; BDP 250 μg/shot, glycerol 1.3%, actuator 0.30 mm, HFA 227/HFA 134a 50:50","56, 56 μg"
same,FPD3 < 4.7 μm*,"[2]; BDP 250 μg/shot, glycerol 1.3%, actuator 0.30 mm, HFA 227/HFA 134a 75:25",56 µg and 57 µg
same,FPD3 < 4.7 μm*,"[2]; BDP 250 μg/shot, glycerol 1.3%, actuator 0.30 mm, HFA 227/HFA 134a 100:0",47 µg and 45 µg and 50 µg
